Data from PubChem BioAssay AID248 (DTP/NCI, 2004).
“And” between values parts separate entries of the source, which are not always exact repeats. Equal values may be shown once. Inconclusive results and toxic doses are left out. Rule as the data show it: active = T/C of 150% or more; inactive = T/C below 125%.

System: L1210 leukemia ip in BDF1 mice, survival T/C
Test: NCI In Vivo Anticancer Drug Screen. Data for tumor model L1210 Leukemia (intraperitoneal) in B6D2F1 (BDF1) mice
Conditions: endpoint: mean survival time, higher = longer survival
Outline: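 Transplantable tumor model; survival measured in treated vs vehicle control mice. Value = treated/control.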

[1] = dose: 200.0 mg/kg/injection, schedule: Q04DX003 (ip), vehicle: Klucel (hydroxypropylcellulose) (HPC)
[2] = dose: 400.0 mg/kg/injection, schedule: Q04DX003 (ip), vehicle: Klucel (hydroxypropylcellulose) (HPC)
[3] = dose: 100.0 mg/kg/injection, schedule: Q04DX003 (ip), vehicle: saline with Tween-80
[4] = dose: 200.0 mg/kg/injection, schedule: Q04DX003 (ip), vehicle: saline with Tween-80
[5] = dose: 100.0 mg/kg/injection, schedule: Q01DX009 (ip), vehicle: Klucel (hydroxypropylcellulose) (HPC)
[6] = dose: 200.0 mg/kg/injection, schedule: Q01DX009 (ip), vehicle: Klucel (hydroxypropylcellulose) (HPC)
[7] = dose: 100.0 mg/kg/injection, schedule: Q04DX003 (ip), vehicle: saline
[8] = dose: 200.0 mg/kg/injection, schedule: Q04DX003 (ip), vehicle: saline
[9] = dose: 400.0 mg/kg/injection, schedule: Q04DX003 (ip), vehicle: saline

Measured: T/C

O=S(=O)(Nc1ccc(Cl)cc1Cl)c1ccccc1
inactive: dose: 100.0 mg/kg/injection, schedule: Q04DX003 (ip), vehicle: Klucel (hydroxypropylcellulose) (HPC) 103 % of control | [1] 103 % of control | [2] 103 % of control

N#CCCC#N (tested in a mixture with another compound)
inactive: [3] 96 % of control | [4] 102 % of control

CC1(C)N=C(N)N=C(N)N1CCCOc1ccc(NC(=O)Nc2cccc(S(=O)(=O)F)c2)cc1
inactive: dose: 25.0 mg/kg/injection, schedule: Q01DX001 (ip), vehicle: saline with Tween-80 102 % of control | dose: 50.0 mg/kg/injection, schedule: Q01DX001 (ip), vehicle: saline with Tween-80 100 % of control

S=c1n(Cc2ccccc2)cnc2ncnn12
inactive: dose: 50.0 mg/kg/injection, schedule: Q01DX009 (ip), vehicle: Klucel (hydroxypropylcellulose) (HPC) 93 % of control | [5] 97 % of control | [6] 95 % of control

CNC(=O)O/N=C/c1ccc([N+](=O)[O-])cc1
inactive: dose: 75.0 mg/kg/injection, schedule: Q01DX001 (ip), vehicle: saline 94 % of control | dose: 150.0 mg/kg/injection, schedule: Q01DX001 (ip), vehicle: saline 100 % of control

O=C(Nc1ccc(C(=O)Cl)cc1)OCCCl
inactive: [3] 96 % of control | [4] 96 % of control | dose: 400.0 mg/kg/injection, schedule: Q04DX003 (ip), vehicle: saline with Tween-80 96 % of control

CC(Cl)CN(CC(C)Cl)c1ccc(S(=O)(=O)Nc2ncccn2)cc1 (configuration not stated)
inactive: dose: 5.0 mg/kg/injection, schedule: Q01DX009 (ip), vehicle: gum acacia 107 % of control | dose: 5.0 mg/kg/injection, schedule: Q01DX009 (ip), vehicle: saline 104 % of control | dose: 8.0 mg/kg/injection, schedule: Q01DX009 (ip), vehicle: gum acacia 100 % of control | dose: 10.0 mg/kg/injection, schedule: Q01DX009 (ip), vehicle: saline 98 % of control | dose: 12.0 mg/kg/injection, schedule: Q01DX009 (ip), vehicle: gum acacia 96 % of control | dose: 20.0 mg/kg/injection, schedule: Q01DX009 (ip), vehicle: saline 105 % of control | dose: 30.0 mg/kg/injection, schedule: Q01DX009 (ip), vehicle: saline 111 % of control | dose: 45.0 mg/kg/injection, schedule: Q01DX009 (ip), vehicle: saline 114 % of control and 117 % of control | dose: 80.0 mg/kg/injection, schedule: Q01DX009 (ip), vehicle: other 122 % of control | dose: 80.0 mg/kg/injection, schedule: Q01DX009 (ip), vehicle: saline with Tween-80 123 % of control | dose: 80.0 mg/kg/injection, schedule: Q01DX009 (ip), vehicle: saline 106 % of control and 108 % of control | dose: 90.0 mg/kg/injection, schedule: Q01DX009 (ip), vehicle: saline 120 % of control | dose: 120.0 mg/kg/injection, schedule: Q01DX009 (ip), vehicle: other 121 % of control | dose: 120.0 mg/kg/injection, schedule: Q01DX009 (ip), vehicle: saline 111 % of control | dose: 180.0 mg/kg/injection, schedule: Q01DX009 (ip), vehicle: other 98 % of control

CCN(CCO)CC1OC(OC)C2OC(C)(C)OC12 (configuration not stated)
inactive: dose: 100.0 mg/kg/injection, schedule: Q01DX009 (ip), vehicle: saline 97 % of control | [7] 98 % of control | dose: 200.0 mg/kg/injection, schedule: Q01DX009 (ip), vehicle: saline 100 % of control | [8] 95 % of control | dose: 400.0 mg/kg/injection, schedule: Q01DX009 (ip), vehicle: saline 94 % of control | [9] 96 % of control

CN1CN(c2ccccc2)C2(CCN(CCCCCCC#N)CC2)C1=O
inactive: dose: 25.0 mg/kg/injection, schedule: Q04DX003 (ip), vehicle: Klucel (hydroxypropylcellulose) (HPC) 102 % of control | dose: 50.0 mg/kg/injection, schedule: Q04DX003 (ip), vehicle: Klucel (hydroxypropylcellulose) (HPC) 94 % of control | [1] 90 % of control | [2] 97 % of control

COc1ccccc1NC(=O)O/N=C/c1ccccn1
inactive: dose: 100.0 mg/kg/injection, schedule: Q04DX003 (ip), vehicle: other 99 % of control | dose: 200.0 mg/kg/injection, schedule: Q04DX003 (ip), vehicle: other 90 % of control | dose: 400.0 mg/kg/injection, schedule: Q04DX003 (ip), vehicle: other 103 % of control

CCN(CC)CCNC(=O)c1c2nc3c(C(=O)NCCN(CC)CC)ccc(C)c3oc-2c(C)c(=O)c1N
inactive: dose: 25.0 mg/kg/injection, schedule: Q04DX002 (ip), vehicle: Klucel (hydroxypropylcellulose) (HPC) 101 % of control | dose: 50.0 mg/kg/injection, schedule: Q04DX002 (ip), vehicle: Klucel (hydroxypropylcellulose) (HPC) 97 % of control | dose: 75.0 mg/kg/injection, schedule: Q01DX001 (ip), vehicle: carboxymethylcellulose (CMC) 105 % of control | dose: 100.0 mg/kg/injection, schedule: Q04DX002 (ip), vehicle: Klucel (hydroxypropylcellulose) (HPC) 94 % of control

O=C1C(OC(=O)c2ccccc2)=C(c2ccc(O)cc2)C(=O)C(OC(=O)c2ccccc2)=C1c1ccc(O)cc1
inactive: dose: 12.5 mg/kg/injection, schedule: Q01DX Z (ip), vehicle: carboxymethylcellulose (CMC) 94 % of control | dose: 25.0 mg/kg/injection, schedule: Q01DX Z (ip), vehicle: carboxymethylcellulose (CMC) 94 % of control | dose: 50.0 mg/kg/injection, schedule: Q01DX Z (ip), vehicle: carboxymethylcellulose (CMC) 105 % of control | dose: 100.0 mg/kg/injection, schedule: Q01DX Z (ip), vehicle: carboxymethylcellulose (CMC) 102 % of control

Cc1cc(C)c([N+](=O)[O-])c(N)n1
inactive: dose: 100.0 mg/kg/injection, schedule: Q01DX001 (ip), vehicle: Klucel (hydroxypropylcellulose) (HPC) 102 % of control | [5] 102 % of control | dose: 200.0 mg/kg/injection, schedule: Q01DX001 (ip), vehicle: Klucel (hydroxypropylcellulose) (HPC) 105 % of control | [6] 101 % of control | dose: 400.0 mg/kg/injection, schedule: Q01DX001 (ip), vehicle: Klucel (hydroxypropylcellulose) (HPC) 100 % of control | dose: 400.0 mg/kg/injection, schedule: Q01DX009 (ip), vehicle: Klucel (hydroxypropylcellulose) (HPC) 103 % of control

O=[N+]([O-])c1ccc(Cl)nc1
inactive: dose: 100.0 mg/kg/injection, schedule: Q01DX001 (ip), vehicle: saline 103 % of control | dose: 100.0 mg/kg/injection, schedule: Q01DX009 (ip), vehicle: saline sonified 100 % of control | dose: 200.0 mg/kg/injection, schedule: Q01DX001 (ip), vehicle: saline 101 % of control | dose: 200.0 mg/kg/injection, schedule: Q01DX009 (ip), vehicle: saline sonified 104 % of control | dose: 400.0 mg/kg/injection, schedule: Q01DX001 (ip), vehicle: saline 103 % of control

Cc1ccc2cc(-c3ccc(C4CCCCC4)cc3)c(N=O)n2c1
inactive: dose: 50.0 mg/kg/injection, schedule: Q01DX001 (ip), vehicle: carboxymethylcellulose (CMC) 93 % of control | dose: 100.0 mg/kg/injection, schedule: Q01DX001 (ip), vehicle: carboxymethylcellulose (CMC) 96 % of control | dose: 200.0 mg/kg/injection, schedule: Q01DX001 (ip), vehicle: carboxymethylcellulose (CMC) 90 % of control | dose: 400.0 mg/kg/injection, schedule: Q01DX001 (ip), vehicle: carboxymethylcellulose (CMC) 90 % of control

O=S(=O)(Cc1ncc2cnccn12)c1ccccc1
inactive: [7] 95 % of control | [8] 103 % of control | [9] 104 % of control

[N-]=[N+]=NC(=O)C1C(c2ccccc2)=C1c1ccccc1
inactive: dose: 100.0 mg/kg/injection, schedule: Q01DX001 (ip), vehicle: steriod suspending solution 93 % of control | dose: 200.0 mg/kg/injection, schedule: Q01DX001 (ip), vehicle: steriod suspending solution 106 % of control | dose: 400.0 mg/kg/injection, schedule: Q01DX001 (ip), vehicle: steriod suspending solution 98 % of control
